Source: patent US5691373A, “Nonpeptide endothelin antagonists I” (Warner-Lambert Company, priority 1995, dated 1997)
Structures can show the parent of a compound that is named as a salt. Where two headings read alike, the source gives them in different places.

How the values were obtained:
ETA = target: T1, ETA (Oryctolagus cuniculus, UniProt A5A8K3)
T1 sequence (A5A8K3 21-427): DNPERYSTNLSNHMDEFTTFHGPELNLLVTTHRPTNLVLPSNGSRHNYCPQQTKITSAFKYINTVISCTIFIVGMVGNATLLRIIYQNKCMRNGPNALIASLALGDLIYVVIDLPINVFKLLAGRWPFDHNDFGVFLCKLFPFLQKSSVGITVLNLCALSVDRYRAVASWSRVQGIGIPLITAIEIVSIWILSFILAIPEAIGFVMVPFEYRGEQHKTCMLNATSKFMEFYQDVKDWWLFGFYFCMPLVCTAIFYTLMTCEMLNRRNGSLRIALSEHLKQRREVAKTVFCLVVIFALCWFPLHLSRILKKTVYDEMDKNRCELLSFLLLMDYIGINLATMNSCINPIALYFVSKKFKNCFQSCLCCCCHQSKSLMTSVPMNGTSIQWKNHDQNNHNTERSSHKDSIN

human ETB receptor = target: T2, human ETB receptor (Homo sapiens, UniProt P24530); experiment: ERBA-B: [125I]-ET-1 binding, recombinant human ETB receptor expressed in CHO-K1 cells; settings: human cloned ETB receptor, read-out: ERBA-B IC50, human cloned receptor data
T2 construct: expressed in transfected cells; host or cells: CHO-K1 cells, pRc-CMW (so in the source) expression vector, electroporation; membranes used
T2 sequence (P24530 27-442): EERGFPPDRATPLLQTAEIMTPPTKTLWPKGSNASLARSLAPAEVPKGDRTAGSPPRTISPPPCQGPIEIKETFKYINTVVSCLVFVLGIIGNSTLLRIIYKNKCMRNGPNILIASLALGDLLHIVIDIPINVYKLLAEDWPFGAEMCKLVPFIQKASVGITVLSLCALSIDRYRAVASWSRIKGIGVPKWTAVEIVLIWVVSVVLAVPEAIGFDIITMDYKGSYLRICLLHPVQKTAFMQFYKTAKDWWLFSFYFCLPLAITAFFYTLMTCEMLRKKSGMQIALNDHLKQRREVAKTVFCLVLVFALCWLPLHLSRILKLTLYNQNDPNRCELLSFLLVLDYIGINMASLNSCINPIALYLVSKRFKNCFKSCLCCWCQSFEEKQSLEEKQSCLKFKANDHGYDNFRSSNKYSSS
Experimental: Count filters for radioactivity in gamma counter.
The above process has also been modified by using human recombinant CHO-K1 cells.
The tissue used for human ETB was recombinant human ETB receptor expressed in CHO-K1 cells (chinese hamster ovary cells). The gene for human ETB receptor was cloned and inserted into the pRc-CMW expression vector, then transfected into CHO-K1 cells by electroporation. For binding assays, membranes (0.7 mg protein) of CHO-K1 cells expressing recombinant human ETB receptor were used.
^d Human cloned receptor data

[1] = ERBA-A IC50, [125I]-ET-1, rabbit renal artery vascular smooth muscle cells

| IC50 (ETA; [1]) [nM] | IC50 (human ETB receptor) [nM] | IC50 (ETA; read-out: ERBA-A IC50, [125I]-ET-1, rabbit renal artery vascular smooth muscle cells) [nM] | SMILES |
| --- | --- | --- | --- |
| 14000 |  |  | COc1ccc(CC2=C(c3ccc(N(C)C)cc3)C(=O)OC2(O)c2ccc(Cl)cc2)cc1OC (racemic) [Example 56, 2(5H)-Furanone, 5-(4-chlorophenyl)-4-[(3,4-dimethoxyphenyl)methyl]-3-[4-(dimethylamino)phenyl]-5-hydroxy-, (±)-] |
| 11000 |  |  | CC(C)c1ccc(CC2=C(c3ccc(N(C)C)cc3)C(=O)OC2(O)c2ccc(Cl)cc2)cc1 (racemic) [Example 57, 2(5H)-Furanone, 5-(4-chlorophenyl)-3-[(4-(dimethylamino)phenyl]-5-hydroxy-4-[[4-(1-methylethyl)phenyl]methyl]-, (±)-] |
| 50 | 4000 |  | COc1ccc(C2(O)OC(=O)C(c3ccc4c(c3)OCO4)=C2Cc2cncc3ccccc23)cc1 (racemic) [Example 164, monohydrochloride] |
| 40 | 25000 |  | COc1ccc(C2(O)OC(=O)C(c3ccc4c(c3)OCO4)=C2Cc2cccnc2)cc1 (racemic) [Example 165, 2(5H)-Furanone, 3-(1,3-benzodioxol-5-yl)-5-hydroxy-5-(4-methoxyphenyl)-4-(3-pyridinylmethyl)-, (±)-, monohydrochloride] |
| 40 | > 2500 |  | COc1ccc(C2(O)OC(=O)C(c3cc(OC)cc(OC)c3)=C2Cc2cccnc2)cc1 (racemic) [Example 166, 2(5H)-Furanone, 3-(3,5-dimethoxyphenyl)-5-hydroxy-5-(4-methoxyphenyl)-4-(3-pyridinylmethyl)-, (±)-, monohydrochloride] |
| 12 |  |  | COc1ccc(C2(O)OC(=O)C(c3ccc4c(c3)OCO4)=C2Cc2ccccc2)cc1C (racemic) [Example 290, 2(5H)-Furanone, 3-(1,3-benzodioxol-5-yl)-5hydroxy-5-(4-methoxy-3-methylphenyl)-4-(phenylmethyl)-, (±)-] |
|  | > 2500 | 290 | COc1ccc(C2(O)OC(=O)C(c3ccc4c(c3)OCO4)=C2Cc2ccc(C(=O)NCCN3CCOCC3)cc2)cc1 (racemic) [Example 350, Benzamide, 4-[4-(1,3-benzodioxol-5-yl)-2,5-dihydro-2-hydroxy-2-(4-methoxyphenyl)-5-oxo-3-furanyl]methyl]-N-[2-(4-morpholinyl)ethyl]-, monohydrochloride, (±)-] |
| 310 |  |  | COc1ccc(C2(O)OC(=O)C(c3ccc4c(c3)OCO4)=C2Cc2ccc(OCc3ccccc3)cc2)cc1 (stereo not shown) [Example 86, 3-Benzo[1,3]dioxol-5-yl-4-(4-benzyloxybenzyl)-5-hydroxy-5-(4-methoxyphenyl) -5H-furan-2-one] |
| 63 | 1500 |  | COc1ccc(C2(O)OC(=O)C(c3ccc4c(c3)OCO4)=C2Cc2ccc3c(c2)OCO3)cc1 (stereo not shown) [Example 87, 3-Benzo[1,3]dioxol-5-yl-4-benzo[1,3]dioxol-5-ylmethyl-5-hydroxy-5-(4-methoxyphenyl)-5H-furan-2-one] |
| 250 |  |  | COc1ccc(C2(O)OC(=O)C(c3ccc4c(c3)OCO4)=C2Cc2ccc(C(F)(F)F)cc2)cc1 (stereo not shown) [Example 88, 3-Benzo[1,3]dioxol-5-yl-5-hydroxy-5-(4-methoxyphenyl)-4-(4-trifluoromethylbenzyl)-5H-furan-2-one] |
| 530 | 15000 |  | CCC1=C(c2ccc3c(c2)OCO3)C(=O)OC1(O)c1ccc(OC)cc1 (stereo not shown) [Example 91, 3-Benzo[1,3]dioxol-5-yl-4-ethyl-5-hydroxy-5-(4-methoxyphenyl)-5H-furan-2-on] |
| 300 | 25000 |  | COc1ccc(C2(O)OC(=O)C(c3ccc(OC)cc3OC)=C2Cc2ccccc2)cc1 (stereo not shown) [Example 113, 4-Benzyl-3-(2,4-dimethoxyphenyl)-5-hydroxy-5-(4-mehoxyphenyl)-5H-furan-2-one] |
| 310 | 2700 |  | COc1ccc(CC2=C(c3ccc(Cl)c(Cl)c3)C(=O)OC2(O)c2ccc(OC)cc2)cc1 (stereo not shown) [Example 117, 3-(3,4-Dichlorophenyl)-5-hydroxy-4-(4-methoxybenzyl)-5-(4-methoxyphenyl)-5H -furan-2-one] |
| 850 |  |  | COc1ccc(C2(O)OC(=O)C(c3ccc(Cl)c(Cl)c3)=C2Cc2ccccc2)cc1 (stereo not shown) [Example 120, 4-Benzyl-3-(3,4-dichlorophenyl)-5-hydroxy-5-(4-methoxyphenyl)-5H-furan-2-one] |
| 74 |  |  | COc1ccc(C2(O)OC(=O)C(c3ccc(Cl)c(Cl)c3)=C2Cc2ccc(C(C)C)cc2)cc1 (stereo not shown) [Example 121, 3-(3,4-Dichlorophenyl)-5-hydroxy-4-(4-isopropylbenzyl)-5-(4-methoxyphenyl)-5H-furan-2-one] |
| 1900 |  |  | COc1ccc(C2(O)OC(=O)C(c3ccc(F)c(F)c3)=C2Cc2ccccc2)cc1 (stereo not shown) [Example 143, 4-Benzyl-3-(3,4-difluorophenyl)-5-hydroxy-5-(4-methoxyphenyl)-5H-furan-2-one] |
| 290 |  |  | COc1ccc(C2(O)OC(=O)C(c3ccc(F)c(F)c3)=C2Cc2ccc(C(C)C)cc2)cc1 (stereo not shown) [Example 144, 3-(3,4-Difluorophenyl)-5-hydroxy-4-(4-isopropylbenzyl)-5-(4-methoxyphenyl)-5H-furan-2-one] |
| 1700 |  |  | COc1ccc(C2(O)OC(=O)C(c3ccc(F)c(F)c3)=C2Cc2ccc(N(C)C)cc2)cc1 (stereo not shown) [Example 145, 3-(3,4-Difluorophenyl)-4-(4-dimethylaminobenzyl)-5-hydroxy-5-(4-methoxyphenyl)-5H-furan-2-one] |
| 600 |  |  | COc1ccc(C2(O)OC(=O)C(c3cc(Cl)cc(Cl)c3)=C2Cc2ccccc2)cc1 (stereo not shown) [Example 149, 4-Benzyl-3-(3,5-dichloro-phenyl)-5-hydroxy-5-(4-methoxy-phenyl)-5H-furan-2-one] |
| 410 |  |  | COC(=O)c1ccc(C2(O)OC(=O)C(c3ccc4c(c3)OCO4)=C2Cc2ccccc2)cc1 (stereo not shown) [Example 198, 4-(4-Benzo[1,3]dioxol-5-yl-3-benzyl-2-hydroxy-5-oxo-2,5-dihydrofuran-2-yl)b enzoic acid methyl ester] |
| 1300 |  |  | Cc1ccc(C2(O)OC(=O)C(c3ccc4c(c3)OCO4)=C2Cc2ccccc2)cc1C (stereo not shown) [Example 212, 3-Benzo[1,3]dioxol-5-yl-4-benzyl-5-(3,4-dimethylphenyl)-5-hydroxy-5H-furan-2-one] |
| 500 |  |  | COc1ccccc1C1(O)OC(=O)C(c2ccc3c(c2)OCO3)=C1Cc1ccccc1 (stereo not shown) [Example 249, 3-Benzo[1,3]dioxol-5-yl-4-benzyl-5-hydroxy-5-(2-methoxyphenyl)-5H-furan-2-one] |
| 13 |  |  | COc1ccc(C2(O)OC(=O)C(c3ccc4c(c3)OCO4)=C2Cc2cccc3ccccc23)cc1 (stereo not shown) [Example 250, 3-Benzo[1,3]dioxol-5-yl-5-hydroxy-5-(4-methoxyphenyl)-4-naphthalen-1-ylmethyl-5H-furan-2-one] |
| 600 |  |  | CCc1ccc(C2(O)OC(=O)C(c3ccc4c(c3)OCO4)=C2Cc2ccccc2)cc1 (stereo not shown) [Example 266, 3-Benzo[1,3]dioxol-5-yl-4-benzyl-5-(4-ethylphenyl)-5-hydroxy-5H-furan-2-one] |
| 390 |  |  | CSc1ccc(C2(O)OC(=O)C(c3ccc4c(c3)OCO4)=C2Cc2ccccc2)cc1 (stereo not shown) [Example 271, 3-Benzo[1,3]dioxol-5-yl-4-benzyl-5-hydroxy-5-(4-methylsulfanylphenyl)-5H-fu ran-2-one] |
| 12 |  |  | COc1ccc(C2(O)OC(=O)C(c3cc(OC)cc(OC)c3)=C2CC2CCCCC2)cc1 (stereo not shown) [Example 275, 2(5H)-Furanone, 4-(cyclohexylmethyl)-3-(3,5-dimethoxyphenyl)-5-hydroxy-5-(4-methoxyphenyl)] |
| 83 |  |  | COc1ccc(C2(O)OC(=O)C(c3ccc4c(c3)OCO4)=C2Cc2cccc(C(=O)O)c2)cc1 (stereo not shown) [Example 292, 3-[4-Benzo[1,3]dioxol-5-yl-2-hydroxy-2-(4-methoxyphenyl)-5-oxo-2,5-dihydro-furan-3-ylmethyl]-benzoic acid] |
| 33 |  |  | COc1ccc(C2(O)OC(=O)C(c3ccc4c(c3)OCO4)=C2Cc2ccc(OC)c(OC)c2OC)cc1 (stereo not shown) [Example 305, 3-Benzo[1,3]dioxol-5-yl-5-hydroxy-5-(4-methoxy-phenyl)-4-(2,3,4-trimethoxy-benzyl)-5H-furan-2-one] |
|  | 328 |  | COc1ccc(C(=O)/C(Cc2cc(OC)c(OC)c(OC)c2)=C(\C(=O)O)c2cc(OC)c3c(c2)OCO3)cc1C [Example 369, Sodium 2-(7-Methoxy-benzo[1,3]dioxol-5-yl)-3-(4-methoxy-3-methyl-benzoyl)-4-(3,4,5-trimethoxyphenyl)-but-2-enoate] |
